According to patent US20100298141A1, “SUBSTITUTED PYRIDINE N-OXIDE HERBICIDES” (E. I. DU PONT DE NEMOURS AND COMPANY, priority 2007, published 2010):

Assays:
[1] = system: barnyardgrass; test: Test A pre-/postemergence greenhouse test; assay type: in vivo, Echinochloa crus-galli; details: for Plant response rating, Barnyardgrass: 0 to 100 scale where 0 is no effect and 100 is complete control; for Barnyardgrass plant response rating: 0 to 100 scale
How it was run: (§1)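 Planting was into mixed loam soil and sand; preemergence treatment followed as a directed soil spray. Concurrently, emerged plants (one- to two-leaf, 2–10 cm) received postemergence applications of identically formulated compound (non-phytotoxic solvent, surfactant). After approximately ten days under greenhouse conditions, injury was judged by eye against untreated plants.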

[2] = system: crabgrass; test: Test A pre-/postemergence greenhouse test; assay type: in vivo, Digitaria sanguinalis; details: for Plant response rating, Crabgrass, Large: 0 to 100 scale where 0 is no effect and 100 is complete control; for Crabgrass, Large plant response rating: 0 to 100 scale
How it was run: as §1

[3] = system: umbrella sedge; test: Test C flooded paddy test; assay type: in vivo, Cyperus difformis; details: Flood
Source text: (§2) At time of treatment, test pots were flooded to 3 cm above the soil surface, treated by application of test compounds directly to the paddy water, and then maintained at that water depth for the duration of the test. Treated plants and controls were maintained in a greenhouse for 13 to 15 days, after which time all species were compared to controls and visually evaluated. […] A dash (-) response means no test result.

[4] = system: duck salad; test: Test C flooded paddy test; assay type: in vivo, Heteranthera limosa; details: Flood
Source text: as §2

[5] = system: corn; test: Test A pre-/postemergence greenhouse test; assay type: in vivo, Zea mays; details: for Plant response rating, Corn: 0 to 100 scale where 0 is no effect and 100 is complete control; for Corn plant response rating: 0 to 100 scale
How it was run: as §1

[6] = system: barnyardgrass; test: Test C flooded paddy test; assay type: in vivo, Echinochloa crus-galli; details: Flood
Source text: as §2

[7] = system: giant foxtail; test: Test A pre-/postemergence greenhouse test; assay type: in vivo, Setaria faberi; details: for Plant response rating, Foxtail, Giant: 0 to 100 scale where 0 is no effect and 100 is complete control; for Foxtail, Giant plant response rating: 0 to 100 scale
How it was run: as §1

[8] = system: wheat; test: Test A pre-/postemergence greenhouse test; assay type: in vivo, Triticum aestivum; details: for Plant response rating, Wheat: 0 to 100 scale where 0 is no effect and 100 is complete control; for Wheat plant response rating: 0 to 100 scale
How it was run: as §1

[9] = system: rice; test: Test C flooded paddy test; assay type: in vivo, Oryza sativa; details: Flood
Source text: as §2

[10] = system: redroot pigweed; test: Test A pre-/postemergence greenhouse test; assay type: in vivo, Amaranthus retroflexus; details: for Plant response rating, Pigweed: 0 to 100 scale where 0 is no effect and 100 is complete control; for Pigweed plant response rating: 0 to 100 scale
How it was run: as §1

[11] = system: velvetleaf; test: Test A pre-/postemergence greenhouse test; assay type: in vivo, Abutilon theophrasti; details: for Plant response rating, Velvetleaf: 0 to 100 scale where 0 is no effect and 100 is complete control; for Velvetleaf plant response rating: 0 to 100 scale
How it was run: as §1

[12] = system: morningglory; test: Test A pre-/postemergence greenhouse test; assay type: in vivo, Ipomoea spp.; details: for Plant response rating, Morningglory: 0 to 100 scale where 0 is no effect and 100 is complete control; for Morningglory plant response rating: 0 to 100 scale
How it was run: as §1

[13] = Postemergence, 500 g ai/ha, 0 is no effect, 100 is complete control
[14] = Preemergence, 125 g ai/ha, 0 no effect, 100 complete control
[15] = 62 g ai/ha, scale 0 to 100 (0 no effect, 100 complete control)
[16] = 250 g ai/ha, scale 0 to 100, 0 no effect, 100 complete control, 13 to 15 days
[17] = Preemergence, 500 g ai/ha, 0 no effect, 100 complete control
[18] = 31 g ai/ha, scale 0 to 100 (0 no effect, 100 complete control)
[19] = 125 g ai/ha, scale 0 to 100, 0 no effect, 100 complete control, 13 to 15 days

What does the source list for `Cn1nc(C(F)(F)C(F)(F)F)c(CS(=O)(=O)c2cccc[n+]2[O-])c1OCC(F)(F)F` [Compound 84]?
Plant response rating, Barnyardgrass ([1]; Postemergence, 125 g ai/ha): 70; Barnyardgrass plant response rating [1, 13]: 80; Barnyardgrass plant response rating [1, 14]: 90; Plant response rating, Barnyardgrass ([1]; Preemergence, 500 g ai/ha): 100; Plant response rating, Crabgrass, Large ([2]; Postemergence, 125 g ai/ha): 70; Crabgrass, Large plant response rating [2, 13]: 80; Crabgrass, Large plant response rating [2, 14]: 60; Plant response rating, Crabgrass, Large ([2]; Preemergence, 500 g ai/ha): 90; Plant response rating, Sedge, Umbrella [3, 15]: 75; Plant response rating, Sedge, Umbrella [3, 16]: 100; Plant response rating, Ducksalad [4, 15]: 75; Plant response rating, Ducksalad [4, 16]: 85; Plant response rating, Corn ([5]; Postemergence, 125 g ai/ha): 0; Corn plant response rating [5, 13]: 40; Corn plant response rating [5, 14]: 0; Plant response rating, Corn ([5]; Preemergence, 500 g ai/ha): 30; Plant response rating, Barnyardgrass [6, 15]: 15; Plant response rating, Barnyardgrass [6, 16]: 60; Plant response rating, Foxtail, Giant ([7]; Postemergence, 125 g ai/ha): 70; Foxtail, Giant plant response rating [7, 13]: 80; Foxtail, Giant plant response rating [7, 14]: 80; Plant response rating, Foxtail, Giant ([7]; Preemergence, 500 g ai/ha): 100; Plant response rating, Wheat ([8]; Postemergence, 125 g ai/ha): 30; Wheat plant response rating [8, 13]: 60; Wheat plant response rating [8, 14]: 40; Plant response rating, Wheat ([8]; Preemergence, 500 g ai/ha): 100; Plant response rating, Rice [9, 15]: 30; Plant response rating, Rice [9, 16]: 65; Plant response rating, Pigweed ([10]; Postemergence, 125 g ai/ha): 40; Pigweed plant response rating [10, 13]: 70; Pigweed plant response rating [10, 14]: 60; Plant response rating, Pigweed ([10]; Preemergence, 500 g ai/ha): 100; Plant response rating, Velvetleaf ([11]; Postemergence, 125 g ai/ha): 20; Velvetleaf plant response rating [11, 13]: 70; Velvetleaf plant response rating [11, 14]: 70; Plant response rating, Velvetleaf ([11]; Preemergence, 500 g ai/ha): 100; Plant response rating, Morningglory ([12]; Postemergence, 125 g ai/ha): 20; Morningglory plant response rating [12, 13]: 70; Morningglory plant response rating [12, 14]: 70; Plant response rating, Morningglory ([12]; Preemergence, 500 g ai/ha): 90

With `Cn1nc(C(F)(F)F)c(CS(=O)(=O)c2ccc(F)c[n+]2[O-])c1OCC(F)(F)F` [Compound 106] as the compound, how does the “Plant response rating, Barnyardgrass” value ([1]; Postemergence, 125 g ai/ha) read?
The value was 40.

And the “Barnyardgrass plant response rating” value [1, 13]?
Its value is 70.

And the “Barnyardgrass plant response rating” value [1, 14]?
Its value is 40.

What about the “Barnyardgrass plant response rating” value [1, 17] of the same compound?
Its value is 90.

And the “Plant response rating, Crabgrass, Large” value ([2]; Postemergence, 125 g ai/ha)?
The value was 30.

And the “Crabgrass, Large plant response rating” value [2, 13]?
The value was 80.

What about the “Crabgrass, Large plant response rating” value [2, 14] of the same compound?
Its value is 60.

What about the “Crabgrass, Large plant response rating” value [2, 17] of the same compound?
The value was 80.

What about the “Plant response rating, Sedge, Umbrella” value [3, 18] of the same compound?
The value was 0.

And the “Plant response rating, Sedge, Umbrella” value [3, 15]?
Its value is 0.

And the “Plant response rating, Sedge, Umbrella” value [3, 19]?
Its value is 0.

What about the “Plant response rating, Sedge, Umbrella” value [3, 16] of the same compound?
The value was 30.

What about the “Plant response rating, Ducksalad” value [4, 18] of the same compound?
Its value is 0.

What about the “Plant response rating, Ducksalad” value [4, 15] of the same compound?
Its value is 50.

What about the “Plant response rating, Ducksalad” value [4, 19] of the same compound?
The value was 60.

And the “Plant response rating, Ducksalad” value [4, 16]?
Its value is 80.

What about the “Plant response rating, Corn” value ([5]; Postemergence, 125 g ai/ha) of the same compound?
Its value is 0.

And the “Corn plant response rating” value [5, 13]?
The value was 0.

And the “Corn plant response rating” value [5, 14]?
Its value is 0.

What about the “Corn plant response rating” value [5, 17] of the same compound?
Its value is 0.

What about the “Plant response rating, Barnyardgrass” value [6, 18] of the same compound?
The value was 0.

What about the “Plant response rating, Barnyardgrass” value [6, 15] of the same compound?
Its value is 0.

What about the “Plant response rating, Barnyardgrass” value [6, 19] of the same compound?
The value was 15.

And the “Plant response rating, Barnyardgrass” value [6, 16]?
Its value is 20.

And the “Plant response rating, Foxtail, Giant” value ([7]; Postemergence, 125 g ai/ha)?
Its value is 50.

What about the “Foxtail, Giant plant response rating” value [7, 13] of the same compound?
The value was 80.

What about the “Foxtail, Giant plant response rating” value [7, 14] of the same compound?
Its value is 40.

What about the “Foxtail, Giant plant response rating” value [7, 17] of the same compound?
The value was 80.

What about the “Plant response rating, Wheat” value ([8]; Postemergence, 125 g ai/ha) of the same compound?
The value was 0.

What about the “Wheat plant response rating” value [8, 13] of the same compound?
Its value is 0.

And the “Wheat plant response rating” value [8, 14]?
The value was 0.

What about the “Wheat plant response rating” value [8, 17] of the same compound?
The value was 0.

And the “Plant response rating, Rice” value [9, 18]?
Its value is 0.

What about the “Plant response rating, Rice” value [9, 15] of the same compound?
Its value is 0.

What about the “Plant response rating, Rice” value [9, 19] of the same compound?
Its value is 20.

What about the “Plant response rating, Rice” value [9, 16] of the same compound?
Its value is 25.

What about the “Plant response rating, Pigweed” value ([10]; Postemergence, 125 g ai/ha) of the same compound?
Its value is 0.

And the “Pigweed plant response rating” value [10, 13]?
Its value is 50.

And the “Pigweed plant response rating” value [10, 14]?
Its value is 70.

And the “Pigweed plant response rating” value [10, 17]?
Its value is 80.

What about the “Plant response rating, Velvetleaf” value ([11]; Postemergence, 125 g ai/ha) of the same compound?
The value was 0.

What about the “Velvetleaf plant response rating” value [11, 13] of the same compound?
Its value is 20.

And the “Velvetleaf plant response rating” value [11, 14]?
Its value is 0.

What about the “Velvetleaf plant response rating” value [11, 17] of the same compound?
Its value is 60.

And the “Plant response rating, Morningglory” value ([12]; Postemergence, 125 g ai/ha)?
Its value is 0.

And the “Morningglory plant response rating” value [12, 13]?
The value was 30.

What about the “Morningglory plant response rating” value [12, 14] of the same compound?
Its value is 10.

And the “Morningglory plant response rating” value [12, 17]?
Its value is 50.
